Reference: patent US20200352918A1, “COMPOUNDS AND METHODS FOR TREATING OR PREVENTING FIBROSIS” (priority 2019, published 2020)

How the values were obtained:
HMGB1 = HMGB1 (ELISA, IF) in the iFA model; format: cell-based, human
Description: (§1) Conditioned media at different time points of progression of the phenotype, and on prevention and resolution drug treatments were collected and quantification of protein was performed using the IBL man HMGB1 ELISA kit or LSBio NPTX1 ELISA kits per manufacturer's instructions. 10 μl of each supernatant sample was added to anti-HMGB1 polyclonal antibody-coated plate and incubated for 20 hours at 37° C. All liquid was then removed and the plate manually washed 5 times with wash buffer. 100 μl of enzyme conjugate was then added and incubated for 2 hours at room temperature. After washing again, color solution was added at 100 μl per well and incubated for 30 minutes at room temperature. Following an additional five washes, the plate was incubated with 90 μl of TMB substrate for another 15 minutes at 37° C. in the dark. The reaction was then stopped by addition 100 μl of stop solution. Absorbance was measured at 450 nm using a SpectraMAX Plate Reader. Data was analyzed using SoftMax Pro software.
Cells grown on coverslips were fixed in 4% paraformaldehyde (PFA) for 10 min at room temperature and washed three times with TBS buffer supplemented with 0.1% Tween 20 (TBST). Lung samples were fixed overnight in 4% PFA at room temperature, washed 3 times in PBS, dehydrated and then infiltrated and embedded with wax. Five-micron sections were collected on glass slides, deparaffinized and rehydrated. […]

[1] = test system: bleomycin model of lung injury; experiment: Bleomycin-induced pulmonary fibrosis in aged mice; format: in vivo
Description: To define the anti-fibrotic effect of AA5, a bleomycin model of lung injury in aged mice was used as a model of lung fibrosis (FIG. 30A). 52-week-old mice were challenged with bleomycin (3 U/kg) by the oropharyngeal route to induce lung injury, followed by systemic administration of AA5 (20 mg/kg) or DMSO, from days 7-21 post bleomycin injury. Naïve mice were maintained as controls. The mice were sacrificed on day 21 and the total collagen content of the lungs was quantified using the hydroxyproline assay. […] The percentage of fibrotic areas from each section was quantified using hematoxylin and eosin staining, tiled and imaged on a Zeiss Axioscope microscope at 2.5× and quantified using the spline contour tool using the ZEN 2011 software.
Naive mice (n=4) without bleomycin were also monitored in the same manner throughout treatment period. […] Data represent min-max and median of collagen content relative to total protein content. ***P<0.001 **P<0.01 using one-way ANOVA and Sidak's multiple comparison test. FIGS. 30C and 30D show a representative H&E section of bleomycin treated lungs with the borders of the lung and fibrotic areas marked using the spline contour tool (FIG. 30C). […] Scale bar, 200 μm. […] Scale bars, 100 μm.

[2] = test system: Idiopathic Pulmonary Fibrosis patient lung slices; experiment: Ex vivo fibrotic lung slice culture (LSC) system; format: cell-based, human
Description: The Milliplex human cytokine/chemokine Panel IV, human TIMP Panel 2, and human TGFβ 1,2,3 magnetic bead kits (EMD Millipore) were used per manufacturer's instructions. Prior to plating, all samples tested for human TGFβ only were activated and neutralized with 1.0 N HCl and 1.0 N NaOH, respectively. Briefly, 25 μl of undiluted or treated cell culture supernatant samples were mixed with 25 μl of magnetic beads and allowed to incubate overnight at 4° C. while shaking. After washing the plates with wash buffer in a Biotek ELx405 washer, 25 μl of biotinylated detection antibody was added and incubated for 1 hour at room temperature while shaking. 25 μl of streptavidin-phycoerythrin conjugate was then added to the reaction mixture and incubated for another 30 minutes at room temperature while shaking. Following additional washes, beads were resuspended in sheath fluid, and fluorescence was quantified using a Luminex 200 instrument. Similarly, a custom magnetic Luminex assay kit of select analytes (R&D Systems) was used per manufacturer's instructions. Cell culture supernatants were prepared with a 2-fold dilution. 50 μl of diluted sample were added to 50 μl of provided micro-particle cocktail and incubated for 2 hours at room temperature while shaking. After washing with wash buffer, 50 μl of biotin antibody cocktail was added and incubated for 1 hour at room temperature while shaking. Following additional washes, 50 μl of diluted Streptavidin-PE was then added for incubation for 30 minutes at room temperature while shaking. The plate was then washed again and the micro-particles resuspended in 100 μl wash buffer. After an additional 2-minute incubation while shaking, the data was acquired using a Luminex 200 instrument.
as §1
In-vitro cultures of PF and cells in the iFA model were washed once with PBS and total RNA from the samples were extracted using the RNeasy Mini Kit (Qiagen) according to the manufacturer's instructions. For the lung slice cultures (LSC), tissues were snap-frozen after treatment and stored at −80° C. until RNA isolation. Lung slices were homogenized using a handheld homogenizer and passing the homogenate through a Qiashredder (Qiagen). Total RNA from the LSC and cells from the disease model were extracted using the RNeasy Mini Kit (Qiagen) according to the manufacturer's instructions. The RNA concentrations were measured on a NanoDrop ND-1000 spectrophotometer. Single-stranded cDNA was synthesized from 200 ng of total RNA using Superscript IV and random hexamer primers (Invitrogen) in a volume of 20 μl. cDNA was then used for qRT-PCR analysis. PCR reactions were performed using Taqman Gene Expression Assay mix (Applied Biosystems) according to the manufacturer's instructions.
All human samples were obtained in accordance with institute IRB. Tissue for lung slice experiments was obtained from patients with Idiopathic Pulmonary Fibrosis (IPF) at the time of lung transplant. […]

Cc1c(C(=O)Nc2nc3ccccc3s2)sc2nc3cc4c(cc3cc12)OCO4 [AA5]
Cytoplasmic HMGB1 (IF staining) (HMGB1; AA5-prevention and AA5-resolution vs DMSO): absence or significantly reduced cytoplasmic HMGB1 | Secreted levels of HMGB1 (HMGB1; iFA model, AA5p and AA5r vs DMSO): attenuated | Total collagen of the lungs (hydroxyproline assay) ([1]; AA5 20 mg/kg systemic, days 7-21 post bleomycin, day 21, vs vehicle): significantly reduced total collagen | Type II marker pro-Surfactant Protein C (proSPC) ([1]; AA5 20 mg/kg vs vehicle, IF): qualitatively larger number | Percentage of fibrotic areas (H&E) ([1]; AA5 20 mg/kg, day 21): vehicle treated mice displayed significantly more fibrotic areas compared to the AA5 treated animals | Secretion of matrix degrading proteases MMP-9 and uPA ([2]; 10 μM AA5, 48 hours): increased secretion | ACTA-2, COL1A2 and TGF-β3 mRNA expression ([2]; 10 μM AA5, 48 hours, vs DMSO, not TGF-β1/2): significantly reduced | Secreted TGF-β3, TIMP-4 and POSTN protein ([2]; 10 μM AA5, 48 hours, not TGF-β1/2): decreased levels | NPTX1 mRNA and protein level ([2]; AA5-treated LSCs): upregulated | Scavenger receptor CD163L1 ([2]; AA5-treated LSCs): upregulated and secreted | HMGB1 immunostaining ([2]; AA5-treated LSCs vs DMSO): exclusively nuclear staining | Secreted HMGB1 (luminex) ([2]; AA5-treated LSCs, 48 hours): markedly decreased | Reduction of fibrosis-initiating SSEA4+ cells ([2]; AA5-treated LSCs, p value <0.001): > 50%
